Measured values reported in ChEMBL document CHEMBL1201862, “PubChem BioAssay data set” (2004).
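Tested at 5 concentrations; 48 h exposure; 96-well plates; endpoints linearly interpolated, else capped at highest concentration. Here, GI50 denotes the concentration required for 50% inhibition of growth.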 Activity calls are given as the source filed them. No stated cut-off is given here; in the data, active = GI50 up to about 1.1 µM and inactive = higher.

What was measured:
Test in all cases: NCI-60 cell line screen, 48 h
SNB-75 = system: SNB-75
RPMI-8226 = system: RPMI-8226
K562 = system: K562
HCT-116 = system: HCT-116
HT-29 = system: HT-29
HOP-92 = system: HOP-92
786-0 = system: 786-0
UO-31 = system: UO-31
SK-MEL-2 = system: SK-MEL-2
MDA-N = system: MDA-N
NCI-H460 = system: NCI-H460
SW-620 = system: SW-620
SK-MEL-5 = system: SK-MEL-5
NCI-H226 = system: NCI-H226
NCI-H522 = system: NCI-H522
CCRF-CEM = system: CCRF-CEM
MCF7 = system: MCF7
OVCAR-8 = system: OVCAR-8
HOP-62 = system: HOP-62
EKVX = system: EKVX
M14 = system: M14
HCC 2998 = system: HCC 2998
Malme-3M = system: Malme-3M
A549 = system: A549
CAKI-1 = system: CAKI-1
SK-OV-3 = system: SK-OV-3
SF-295 = system: SF-295
U-251 = system: U-251
COLO 205 = system: COLO 205
IGROV-1 = system: IGROV-1
PC-3 = system: PC-3
SF-539 = system: SF-539
MOLT-4 = system: MOLT-4
HCT-15 = system: HCT-15
OVCAR-3 = system: OVCAR-3
Hs-578T = system: Hs-578T
TK-10 = system: TK-10
OVCAR-5 = system: OVCAR-5
SN12C = system: SN12C
MDA-MB-435 = system: MDA-MB-435
RXF 393 = system: RXF 393
A498 = system: A498
NCI/ADR-RES = system: NCI/ADR-RES
SNB-19 = system: SNB-19
UACC-257 = system: UACC-257
BT-549 = system: BT-549
SF-268 = system: SF-268
OVCAR-4 = system: OVCAR-4
T47D = system: T47D
UACC-62 = system: UACC-62
KM12 = system: KM12
DU-145 = system: DU-145
LOX IMVI = system: LOX IMVI
ACHN = system: ACHN
SR = system: SR
MDA-MB-231 = system: MDA-MB-231
SK-MEL-28 = system: SK-MEL-28
NCI-H23 = system: NCI-H23
HL-60 = system: HL-60

Measured: GI50

CNCCCNC(=S)Cn1cc(C)c(=O)[nH]c1=O
> 42.7 µM: HCT-15
inactive: SNB-75 > 54.2 µM | RPMI-8226 > 100 µM | K562 > 42.2 µM | HCT-116 > 33.8 µM | HT-29 > 35.9 µM | HOP-92 34.4 µM | 786-0 > 44.3 µM | UO-31 > 48 µM | SK-MEL-2 > 45.2 µM | MDA-N > 100 µM | NCI-H460 > 43 µM | SW-620 > 56.4 µM | SK-MEL-5 > 21.3 µM | NCI-H226 > 59 µM | NCI-H522 > 53.6 µM | CCRF-CEM > 30.6 µM | MCF7 > 31.8 µM | OVCAR-8 > 26.6 µM | HOP-62 > 54.3 µM | EKVX > 60.8 µM | M14 > 53 µM | HCC 2998 > 52.6 µM | Malme-3M > 100 µM | A549 > 29.9 µM | CAKI-1 24.9 µM | SK-OV-3 > 54.8 µM | SF-295 > 27 µM | U-251 > 47.5 µM | COLO 205 > 48.8 µM | IGROV-1 > 39.5 µM | PC-3 > 45.5 µM | SF-539 > 20.1 µM | MOLT-4 > 35.2 µM | OVCAR-3 > 48.9 µM | Hs-578T > 35.1 µM | TK-10 > 64.7 µM | OVCAR-5 > 69.5 µM | SN12C > 100 µM | MDA-MB-435 > 26.1 µM | RXF 393 > 60.3 µM | A498 > 55.6 µM | NCI/ADR-RES > 57.8 µM | SNB-19 > 91.2 µM | UACC-257 > 37.9 µM | BT-549 > 61.9 µM | SF-268 > 39.1 µM | OVCAR-4 > 53.2 µM | T47D > 100 µM | UACC-62 > 47.4 µM | KM12 > 48.1 µM | DU-145 > 52.2 µM | LOX IMVI > 34.2 µM | ACHN > 49.2 µM | SR > 32.9 µM | MDA-MB-231 > 60.4 µM | SK-MEL-28 > 56.9 µM | NCI-H23 > 41.8 µM

CCNC(=S)N/N=C(\C)c1cccc(C)n1
inactive: SNB-75 75.2 µM | K562 1.78 µM | HCT-116 7.18 µM | HT-29 3.09 µM | HOP-92 13.5 µM | 786-0 12.8 µM | UO-31 3.71 µM | SK-MEL-2 42.8 µM | MDA-N 28.2 µM | NCI-H460 6.01 µM | SW-620 18.6 µM | SK-MEL-5 4.52 µM | NCI-H226 11 µM | MCF7 3.32 µM | OVCAR-8 3.44 µM | HOP-62 29.7 µM | EKVX 2.04 µM | M14 11 µM | HCC 2998 3.13 µM | Malme-3M 2.39 µM | A549 20.6 µM | SK-OV-3 13.1 µM | SF-295 26.9 µM | U-251 7.43 µM | HL-60 3.47 µM | IGROV-1 4.36 µM | PC-3 5.87 µM | SF-539 18.7 µM | Hs-578T > 100 µM | TK-10 > 100 µM | OVCAR-5 9.31 µM | SN12C 11.8 µM | MDA-MB-435 20.5 µM | RXF 393 45.3 µM | A498 13.5 µM | NCI/ADR-RES 8.45 µM | SNB-19 30.3 µM | UACC-257 5.2 µM | BT-549 31.5 µM | SF-268 2.4 µM | UACC-62 15.4 µM | KM12 20.3 µM | DU-145 14.9 µM | LOX IMVI 18.6 µM | ACHN 9.27 µM | SR > 100 µM | MDA-MB-231 7.36 µM | SK-MEL-28 22.3 µM | NCI-H23 23 µM
active: NCI-H522 0.897 µM | CCRF-CEM 0.351 µM | COLO 205 0.748 µM | MOLT-4 0.631 µM | OVCAR-3 0.299 µM | T47D 0.643 µM
7.18 µM: HCT-15

COc1ccc([N+](=O)[O-])c2c(NCCCN(C)C)c(C)c(C)nc12
inactive: SNB-75 36.1 µM | RPMI-8226 31.8 µM | K562 37.6 µM | HCT-116 36.2 µM | HT-29 42.6 µM | HOP-92 23.9 µM | 786-0 > 100 µM | UO-31 > 100 µM | SK-MEL-2 > 100 µM | MDA-N > 100 µM | NCI-H460 34.4 µM | SW-620 54 µM | SK-MEL-5 46.8 µM | NCI-H522 27.9 µM | CCRF-CEM > 100 µM | MCF7 49.9 µM | OVCAR-8 > 100 µM | HOP-62 89.5 µM | M14 > 100 µM | HCC 2998 > 100 µM | Malme-3M 45.1 µM | A549 99.3 µM | CAKI-1 > 100 µM | SK-OV-3 > 100 µM | SF-295 90.8 µM | U-251 > 100 µM | HL-60 42.9 µM | COLO 205 26.2 µM | IGROV-1 36.6 µM | PC-3 83 µM | SF-539 > 100 µM | MOLT-4 > 100 µM | OVCAR-3 96.6 µM | Hs-578T > 100 µM | TK-10 > 100 µM | OVCAR-5 > 100 µM | SN12C > 100 µM | MDA-MB-435 > 100 µM | A498 > 100 µM | NCI/ADR-RES > 100 µM | SNB-19 44.8 µM | UACC-257 > 100 µM | BT-549 56.6 µM | SF-268 > 100 µM | OVCAR-4 27.8 µM | T47D 77.3 µM | UACC-62 81.3 µM | KM12 > 100 µM | DU-145 > 100 µM | LOX IMVI > 100 µM | ACHN > 100 µM | SR 14.3 µM | MDA-MB-231 57.5 µM | SK-MEL-28 > 100 µM | NCI-H23 44.8 µM
22.4 µM: HCT-15
